Data from patent US10457691B2, “Macrocyclic kinase inhibitors and uses thereof” (Dana-Farber Cancer Institute, Inc., priority 2014, dated 2019).

Columns and labels:
Assay type in all cases: biochemical
Details in all cases: read-out: Activity of the protein kinase when treated with compound I-1 (% control)
PKBb = PKBb (Homo sapiens, UniProt P31751); assay: Protein kinase assay ([γ-32P] ATP), PKBb
Method: (§1) In another set of experiments, the activities of the compounds described herein against various protein kinases were determined according to the methods reported in Hastie et al., Nature Protocols, 2006, 1, 968-971.
(§2) Enzyme dilution buffer. This buffer consisted of 50 mM Tris-HCl, pH 7.5, 0.1 mM EGTA, 1 mg ml^−1 bovine serum albumin and 0.1% (vol/vol) 2-mercaptoethanol.
(§3) 10× concentrated assay buffer. An assay buffer of 500 mM Tris-HCl, pH 7.5, 1 mM EGTA, and 100 mM magnesium acetate was used for assay of a wide variety of protein kinases. In some experiments, other cofactors were included (e.g., calcium ions and calmodulin were included for assay of calcium-calmodulindependent protein kinases).
(§4) 1 mM [γ-^32P] ATP. The specific activity of the [γ-^32P] ATP solution was 1×10^5 to 1×10^6 c.p.m. per nmol depending on what was needed to produce an optimal signal/noise ratio. […] To measure the concentration of ATP, a sample of such a stock solution was diluted to 20 μM, and the absorbance of the diluted sample was measured at 259 nm. The absorbance of a 20-μM stock solution of ATP at 259 nm was about 0.31. […] ATP to produce a radioactivity of 1×10^5 to 1×10^6 c.p.m. per nmol. […]
(§5) 13) Measure radioactivity in the samples by Cerenkov counting (e.g., without liquid scintillation fluid) in a liquid scintillation counter using a “^32P program”. […]

GSK3b = GSK3b (Homo sapiens, UniProt P49841); assay: Protein kinase assay ([γ-32P] ATP), GSK3b
Method: as §1, §2, §3, §4, §5

ERK1 = ERK1 (Homo sapiens, UniProt P27361); assay: Protein kinase assay ([γ-32P] ATP), ERK1
Method: as §1, §2, §3, §4, §5

DAPK1 = DAPK1 (Homo sapiens, UniProt P53355); assay: Protein kinase assay ([γ-32P] ATP), DAPK1
Method: as §1, §2, §3, §4, §5

HER4 = HER4 (Homo sapiens, UniProt Q15303); assay: Protein kinase assay ([γ-32P] ATP), HER4
Method: as §1, §2, §3, §4, §5

EPH-B3 = EPH-B3 (Homo sapiens, UniProt P54753); assay: Protein kinase assay ([γ-32P] ATP), EPH-B3
Method: as §1, §2, §3, §4, §5

IRAK4 = IRAK4 (Homo sapiens, UniProt Q9NWZ3); assay: Protein kinase assay ([γ-32P] ATP), IRAK4
Method: as §1, §2, §3, §4, §5

PKA = PKA (Homo sapiens, UniProt P17612); assay: Protein kinase assay ([γ-32P] ATP), PKA
Method: as §1, §2, §3, §4, §5

MST3 = MST3 (Homo sapiens, UniProt Q9Y6E0); assay: Protein kinase assay ([γ-32P] ATP), MST3
Method: as §1, §2, §3, §4, §5

GCK = GCK (Homo sapiens, UniProt Q12851); assay: Protein kinase assay ([γ-32P] ATP), GCK
Method: as §1, §2, §3, §4, §5

MAPKAP-K2 = MAPKAP-K2 (Homo sapiens, UniProt P49137); assay: Protein kinase assay ([γ-32P] ATP), MAPKAP-K2
Method: as §1, §2, §3, §4, §5

CHK1 = CHK1 (Homo sapiens, UniProt O14757); assay: Protein kinase assay ([γ-32P] ATP), CHK1
Method: as §1, §2, §3, §4, §5

S6K1 = S6K1 (Homo sapiens, UniProt P23443); assay: Protein kinase assay ([γ-32P] ATP), S6K1
Method: as §1, §2, §3, §4, §5

TLK1 = TLK1 (Homo sapiens, UniProt Q9UKI8); assay: Protein kinase assay ([γ-32P] ATP), TLK1
Method: as §1, §2, §3, §4, §5

p38d MAPK = p38d MAPK (Homo sapiens, UniProt O15264); assay: Protein kinase assay ([γ-32P] ATP), p38d MAPK
Method: as §1, §2, §3, §4, §5

SRPK1 = SRPK1 (Homo sapiens, UniProt Q96SB4); assay: Protein kinase assay ([γ-32P] ATP), SRPK1
Method: as §1, §2, §3, §4, §5

PDK1 = PDK1 (Homo sapiens, UniProt O15530); assay: Protein kinase assay ([γ-32P] ATP), PDK1
Method: as §1, §2, §3, §4, §5

[1] = 0.1 μM of compound I-1, DMSO control = 100%
[2] = 1 μM of compound I-1, DMSO control = 100%

Chain of ERK1 (P27361 whole entry): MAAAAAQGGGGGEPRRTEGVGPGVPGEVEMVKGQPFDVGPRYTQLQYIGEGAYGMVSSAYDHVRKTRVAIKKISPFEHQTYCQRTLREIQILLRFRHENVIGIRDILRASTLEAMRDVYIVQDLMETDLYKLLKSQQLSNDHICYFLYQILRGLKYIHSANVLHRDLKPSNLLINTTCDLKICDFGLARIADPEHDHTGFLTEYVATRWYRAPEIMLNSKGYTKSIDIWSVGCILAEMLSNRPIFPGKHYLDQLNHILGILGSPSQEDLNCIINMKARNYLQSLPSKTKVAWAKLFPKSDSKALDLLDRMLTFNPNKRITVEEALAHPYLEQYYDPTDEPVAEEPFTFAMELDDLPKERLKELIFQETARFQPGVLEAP
Chain of CHK1 (O14757 whole entry): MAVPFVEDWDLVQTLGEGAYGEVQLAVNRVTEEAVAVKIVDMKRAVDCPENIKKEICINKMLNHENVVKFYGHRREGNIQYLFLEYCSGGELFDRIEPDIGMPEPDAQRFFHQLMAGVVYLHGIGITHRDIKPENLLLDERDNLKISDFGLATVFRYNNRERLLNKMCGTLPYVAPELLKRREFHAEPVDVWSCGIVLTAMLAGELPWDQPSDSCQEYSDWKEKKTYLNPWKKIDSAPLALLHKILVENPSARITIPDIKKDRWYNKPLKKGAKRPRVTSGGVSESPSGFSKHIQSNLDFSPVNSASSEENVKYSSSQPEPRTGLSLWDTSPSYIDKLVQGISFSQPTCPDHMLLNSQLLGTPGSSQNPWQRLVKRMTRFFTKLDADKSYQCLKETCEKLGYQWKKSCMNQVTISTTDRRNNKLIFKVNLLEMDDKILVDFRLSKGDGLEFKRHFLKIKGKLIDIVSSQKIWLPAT
Chain of GCK (Q12851 whole entry): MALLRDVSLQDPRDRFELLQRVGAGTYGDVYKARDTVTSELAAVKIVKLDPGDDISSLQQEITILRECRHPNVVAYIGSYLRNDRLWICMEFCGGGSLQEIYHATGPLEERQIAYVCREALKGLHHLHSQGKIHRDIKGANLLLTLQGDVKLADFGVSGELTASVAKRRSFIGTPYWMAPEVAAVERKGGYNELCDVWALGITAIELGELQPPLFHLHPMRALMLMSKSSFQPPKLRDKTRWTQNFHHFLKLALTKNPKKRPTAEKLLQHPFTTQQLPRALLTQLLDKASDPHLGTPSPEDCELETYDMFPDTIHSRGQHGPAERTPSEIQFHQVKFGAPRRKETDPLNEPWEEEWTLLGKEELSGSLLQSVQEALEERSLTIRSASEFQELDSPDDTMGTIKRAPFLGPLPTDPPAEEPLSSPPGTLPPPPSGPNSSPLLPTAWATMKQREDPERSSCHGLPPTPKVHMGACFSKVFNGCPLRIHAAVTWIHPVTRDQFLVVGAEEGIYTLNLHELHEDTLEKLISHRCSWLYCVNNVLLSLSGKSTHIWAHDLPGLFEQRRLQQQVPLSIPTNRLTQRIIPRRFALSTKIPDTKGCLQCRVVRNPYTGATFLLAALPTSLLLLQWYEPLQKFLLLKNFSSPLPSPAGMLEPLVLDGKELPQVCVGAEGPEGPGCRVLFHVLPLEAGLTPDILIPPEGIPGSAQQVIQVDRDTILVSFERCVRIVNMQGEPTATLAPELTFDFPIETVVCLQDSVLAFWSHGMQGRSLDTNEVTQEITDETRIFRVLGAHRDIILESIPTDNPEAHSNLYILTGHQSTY
Chain of S6K1 (P23443 whole entry, species assumed): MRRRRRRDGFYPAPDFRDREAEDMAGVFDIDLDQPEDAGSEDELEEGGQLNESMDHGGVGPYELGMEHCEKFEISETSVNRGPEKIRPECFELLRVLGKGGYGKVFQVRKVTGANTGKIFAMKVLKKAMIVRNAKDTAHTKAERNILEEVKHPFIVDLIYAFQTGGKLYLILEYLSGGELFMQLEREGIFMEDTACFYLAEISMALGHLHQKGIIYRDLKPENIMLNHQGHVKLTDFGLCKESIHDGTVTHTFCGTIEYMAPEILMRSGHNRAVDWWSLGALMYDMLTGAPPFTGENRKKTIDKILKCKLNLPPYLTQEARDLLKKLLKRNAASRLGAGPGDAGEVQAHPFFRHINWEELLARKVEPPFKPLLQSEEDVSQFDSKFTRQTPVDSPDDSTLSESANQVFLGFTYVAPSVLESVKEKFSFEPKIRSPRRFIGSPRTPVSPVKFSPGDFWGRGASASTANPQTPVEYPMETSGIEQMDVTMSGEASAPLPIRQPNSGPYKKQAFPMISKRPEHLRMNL
Chain of p38d MAPK (O15264 whole entry): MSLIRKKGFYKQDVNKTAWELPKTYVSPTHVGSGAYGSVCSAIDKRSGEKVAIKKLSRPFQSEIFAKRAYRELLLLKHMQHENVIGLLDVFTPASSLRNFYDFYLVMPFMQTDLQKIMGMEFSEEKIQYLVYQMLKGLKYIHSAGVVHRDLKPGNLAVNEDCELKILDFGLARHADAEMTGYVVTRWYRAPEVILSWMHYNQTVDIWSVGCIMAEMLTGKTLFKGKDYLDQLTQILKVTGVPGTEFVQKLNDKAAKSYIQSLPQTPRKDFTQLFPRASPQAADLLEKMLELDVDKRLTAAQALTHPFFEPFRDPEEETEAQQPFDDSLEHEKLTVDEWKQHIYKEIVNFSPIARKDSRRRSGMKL
Chain of TLK1 (Q9UKI8 whole entry, species assumed): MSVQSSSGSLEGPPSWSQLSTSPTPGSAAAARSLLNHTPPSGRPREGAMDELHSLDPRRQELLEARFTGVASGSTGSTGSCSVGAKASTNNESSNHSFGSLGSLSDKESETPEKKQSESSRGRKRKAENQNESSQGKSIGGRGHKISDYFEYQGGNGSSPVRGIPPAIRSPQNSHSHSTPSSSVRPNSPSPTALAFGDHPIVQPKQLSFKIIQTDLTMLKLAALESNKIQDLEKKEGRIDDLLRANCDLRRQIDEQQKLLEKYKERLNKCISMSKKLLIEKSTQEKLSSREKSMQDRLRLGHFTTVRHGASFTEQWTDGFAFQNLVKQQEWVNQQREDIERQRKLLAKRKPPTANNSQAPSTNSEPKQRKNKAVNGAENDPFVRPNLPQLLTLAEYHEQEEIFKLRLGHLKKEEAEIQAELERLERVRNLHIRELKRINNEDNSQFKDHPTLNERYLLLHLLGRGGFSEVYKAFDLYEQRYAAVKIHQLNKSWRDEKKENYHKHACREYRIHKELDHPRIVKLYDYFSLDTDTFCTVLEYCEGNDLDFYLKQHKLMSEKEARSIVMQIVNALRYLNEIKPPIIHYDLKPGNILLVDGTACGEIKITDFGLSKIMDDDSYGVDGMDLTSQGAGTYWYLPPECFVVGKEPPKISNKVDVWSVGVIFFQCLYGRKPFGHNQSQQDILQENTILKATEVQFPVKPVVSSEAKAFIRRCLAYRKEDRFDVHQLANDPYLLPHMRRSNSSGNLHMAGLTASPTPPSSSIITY
Chain of EPH-B3 (P54753 34-998): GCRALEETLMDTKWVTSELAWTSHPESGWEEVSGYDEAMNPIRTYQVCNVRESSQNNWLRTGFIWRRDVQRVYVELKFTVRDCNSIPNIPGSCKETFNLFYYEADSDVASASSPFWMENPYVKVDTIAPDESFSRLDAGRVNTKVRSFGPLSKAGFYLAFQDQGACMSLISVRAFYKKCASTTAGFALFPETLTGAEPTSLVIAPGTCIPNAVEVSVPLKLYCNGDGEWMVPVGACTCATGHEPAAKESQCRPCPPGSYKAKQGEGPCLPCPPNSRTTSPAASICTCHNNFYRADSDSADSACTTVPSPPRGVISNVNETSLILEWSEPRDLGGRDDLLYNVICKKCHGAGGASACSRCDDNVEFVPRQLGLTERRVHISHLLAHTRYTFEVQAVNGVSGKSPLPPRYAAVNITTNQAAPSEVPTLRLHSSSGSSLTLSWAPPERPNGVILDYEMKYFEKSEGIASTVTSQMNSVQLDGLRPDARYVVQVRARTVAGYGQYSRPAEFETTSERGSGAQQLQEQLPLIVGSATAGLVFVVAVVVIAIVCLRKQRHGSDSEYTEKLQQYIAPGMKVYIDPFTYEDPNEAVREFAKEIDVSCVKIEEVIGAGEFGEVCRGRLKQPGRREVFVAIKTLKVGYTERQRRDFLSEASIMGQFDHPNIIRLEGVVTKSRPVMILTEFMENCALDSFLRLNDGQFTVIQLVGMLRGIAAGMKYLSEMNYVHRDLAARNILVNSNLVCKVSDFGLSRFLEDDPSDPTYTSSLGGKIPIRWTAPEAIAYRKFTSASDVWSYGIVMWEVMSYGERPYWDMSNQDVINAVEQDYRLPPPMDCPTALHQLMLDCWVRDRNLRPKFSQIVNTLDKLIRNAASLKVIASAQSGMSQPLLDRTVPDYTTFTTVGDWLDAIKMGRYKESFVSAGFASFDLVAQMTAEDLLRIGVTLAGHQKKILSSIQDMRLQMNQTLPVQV
Chain of PDK1 (O15530 whole entry): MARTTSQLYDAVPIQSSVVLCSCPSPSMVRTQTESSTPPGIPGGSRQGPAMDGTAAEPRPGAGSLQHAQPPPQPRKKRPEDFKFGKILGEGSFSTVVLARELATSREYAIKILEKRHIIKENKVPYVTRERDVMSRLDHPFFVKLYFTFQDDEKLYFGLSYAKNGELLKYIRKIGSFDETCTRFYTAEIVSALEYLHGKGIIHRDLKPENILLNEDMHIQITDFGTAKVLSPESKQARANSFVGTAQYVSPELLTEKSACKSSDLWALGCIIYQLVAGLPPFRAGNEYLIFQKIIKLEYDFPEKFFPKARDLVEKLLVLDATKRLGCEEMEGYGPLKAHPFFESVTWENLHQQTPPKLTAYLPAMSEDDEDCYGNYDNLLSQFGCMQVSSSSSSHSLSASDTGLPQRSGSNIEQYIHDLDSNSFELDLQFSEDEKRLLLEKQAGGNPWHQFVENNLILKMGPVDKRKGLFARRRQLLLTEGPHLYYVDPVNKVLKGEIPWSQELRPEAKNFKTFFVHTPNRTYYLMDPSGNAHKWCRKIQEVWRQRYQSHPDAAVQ

## Cc1cccc(C)c1NC(=O)N1C/C=C\COc2cccc(c2)Nc2cc1ncn2 [Compound I-1]
PKBb; [1]
  remaining activity at 0.1 µM: 102%
PKBb; [2]
  remaining activity at 1 µM: 89%
GSK3b; [1]
  remaining activity at 0.1 µM: 101%
GSK3b; [2]
  remaining activity at 1 µM: 75%
ERK1; [1]
  remaining activity at 0.1 µM: 97%
ERK1; [2]
  remaining activity at 1 µM: 87%
DAPK1; [1]
  remaining activity at 0.1 µM: 99%
DAPK1; [2]
  remaining activity at 1 µM: 85%
HER4; [1]
  remaining activity at 0.1 µM: 100%
HER4; [2]
  remaining activity at 1 µM: 71%
EPH-B3; [1]
  remaining activity at 0.1 µM: 25%
EPH-B3; [2]
  remaining activity at 1 µM: 2%
IRAK4; [1]
  remaining activity at 0.1 µM: 92%
IRAK4; [2]
  remaining activity at 1 µM: 86%
PKA; [1]
  remaining activity at 0.1 µM: 105%
PKA; [2]
  remaining activity at 1 µM: 88%
MST3; [1]
  remaining activity at 0.1 µM: 91%
MST3; [2]
  remaining activity at 1 µM: 87%
GCK; [1]
  remaining activity at 0.1 µM: 71%
GCK; [2]
  remaining activity at 1 µM: 16%
MAPKAP-K2; [1]
  remaining activity at 0.1 µM: 88%
MAPKAP-K2; [2]
  remaining activity at 1 µM: 84%
CHK1; [1]
  remaining activity at 0.1 µM: 99%
CHK1; [2]
  remaining activity at 1 µM: 94%
S6K1; [1]
  remaining activity at 0.1 µM: 105%
S6K1; [2]
  remaining activity at 1 µM: 83%
TLK1; [1]
  remaining activity at 0.1 µM: 112%
TLK1; [2]
  remaining activity at 1 µM: 92%
p38d MAPK; [1]
  remaining activity at 0.1 µM: 110%
p38d MAPK; [2]
  remaining activity at 1 µM: 73%
SRPK1; [1]
  remaining activity at 0.1 µM: 100%
SRPK1; [2]
  remaining activity at 1 µM: 74%
PDK1; [1]
  remaining activity at 0.1 µM: 103%
PDK1; [2]
  remaining activity at 1 µM: 87%
